Measured values: patent publication US6911469B2, “Sulfonamide compounds and pharmaceutical use thereof” (Fujisawa Pharmaceutical Co., Ltd., priority 1997, dated 2005)

Compound | melting point
CCCCS(=O)(=O)NC(=O)c1ccc2c(c1)CN(Cc1ccc(Cl)cc1Cl)C(C)=N2.Cl | 258 °C (dec.)
CCCCCS(=O)(=O)NC(=O)c1ccc2c(c1)N(Cc1ccc(Cl)cc1Cl)C(C)=NC2.Cl | 184 to 186 °C
CCCCCS(=O)(=O)NC(=O)c1ccc2sc(C)c(Cc3ccc(Cl)c(Cl)c3)c2c1 [Example 1, 3-(3,4-dichlorobenzyl)-2-methyl-5-(n-pentanesulfonyl-carbamoyl)benzo[b]thiophene] | 159 to 160 °C
CCCCCS(=O)(=O)NC(=O)c1ccc2sc(C)c(Cc3cccc(Cl)c3Cl)c2c1 [Example 2, 3-(2,3-dichlorobenzyl)-2-methyl-5-(n-pentanesulfonylcarbamoyl)benzo[b]thiophene] | 196 to 197 °C
CCCCCS(=O)(=O)NC(=O)c1ccc2sc(C)c(Cc3cc(Cl)ccc3Cl)c2c1 [Example 3, 3-(2,5-dichlorobenzyl)-2-methyl-5-(n-pentanesulfonylcarbamoyl)benzo[b]thiophene] | 147 to 148 °C
CCCCCS(=O)(=O)NC(=O)c1ccc2nc(C)n(Cc3ccc(Cl)cc3Cl)c2n1 [Example 8-1, 3-(2,4-dichlorobenzyl)-2-methyl-5-(n-pentanesulfonylcarbamoyl)-3H-imidazo[4,5-b]pyridine] | 174 to 175 °C
CCCCS(=O)(=O)NC(=O)c1ccc2nc(C)n(Cc3ccc(Cl)cc3Cl)c2n1 [Example 8-2, 5-(n-butanesulfonylcarbamoyl)-3-(2,4-dichlorobenzyl)-2-methyl-3H-imidazo[4,5-b]pyridine] | 153 to 154 °C
Cc1nc2ccc(C(=O)NS(=O)(=O)c3ccccc3)nc2n1Cc1ccc(Cl)cc1Cl [Example 8-3, 5-benzenesulfonylcarbamoyl-3-(2,4-dichlorobenzyl)-2-methyl-3H-imidazo[4,5-b]pyridine] | 193 to 194 °C
CCCCCS(=O)(=O)NC(=O)c1ccc2nc(C)n(Cc3ccc(-c4ccccc4)cc3Cl)c2n1 [Example 9, 3-(2-chloro-4-phenylbenzyl)-2-methyl-5-(n-pentanesulfonylcarbamoyl)-3H-imidazo[4,5-b]pyridine] | 155 to 156 °C
CCCCCS(=O)(=O)NC(=O)c1ccc2nc(C)n(Cc3ccc4ccccc4c3Br)c2n1 [Example 10, 3-(1-bromo-2-naphthyl)methyl-2-methyl-5-(n-pentanesulfonylcarbamoyl)-3H-imidazo[4,5-b]pyridine] | 200 to 201 °C
CCCCCS(=O)(=O)NC(=O)c1ccc2nc(C)n(Cc3ccc(-c4ccccc4)cc3)c2n1 [Example 11, 2-methyl-5-(n-pentanesulfonyl-carbamoyl)-3-(4-phenylbenzyl)-3H-imidazo[4,5-b]pyridine] | 170 to 171 °C
CCCCCS(=O)(=O)NC(=O)c1ccc2nc(C)n(Cc3ccc(Br)cc3Cl)c2n1 [Example 12-1, 3-(4-bromo-2-chlorobenzyl)-2-methyl-5-(n-pentanesulfonylcarbamoyl)-3H-imidazo[4,5-b]pyridine] | 183 to 184 °C
CCCCS(=O)(=O)NC(=O)c1ccc2nc(C)n(Cc3ccc(Br)cc3Cl)c2n1 [Example 12-2, 3-(4-bromo-2-chlorobenzyl)-5-(n-butanesulfonylcarbamoyl)-2-methyl-3H-imidazo[4,5-b]pyridine] | 165 to 166 °C
Cc1nc2ccc(C(=O)NS(=O)(=O)c3ccccc3)nc2n1Cc1ccc(Br)cc1Cl [Example 12-3, 5-(benzenesulfonylcarbamoyl)-3-(4-bromo-2-chlorobenzyl)-2-methyl-3H-imidazo[4,5-b]pyridine] | 193 to 194 °C
CCCCCS(=O)(=O)NC(=O)c1ccc2nc(C)n(Cc3ccc(Cl)cc3Br)c2n1 [Example 13-1, 3-(2-bromo-4-chlorobenzyl)-2-methyl-5-(n-pentanesulfonylcarbamoyl)-3H-imidazo[4,5-b]pyridine] | 167 to 168 °C
Cc1nc2ccc(C(=O)NS(=O)(=O)c3ccccc3)nc2n1Cc1ccc(Cl)cc1Br [Example 13-2, 5-(benzenesulfonylcarbamoyl)-3-(2-bromo-4-chlorobenzyl)-2-methyl-3H-imidazo[4,5-b]pyridine] | 189 to 190 °C
CCCCS(=O)(=O)NC(=O)c1ccc2nc(C)n(Cc3ccc(Cl)cc3Br)c2n1 [Example 13-3, 3-(2-bromo-4-chlorobenzyl)-5-(n-butanesulfonylcarbamoyl)-2-methyl-3H-imidazo[4,5-b]pyridine] | 145 to 146 °C
CCCCCS(=O)(=O)NC(=O)c1cc(C)c2nc(CC)n(Cc3ccc(Cl)cc3Cl)c2n1 [Example 15, 3-(2,4-dichlorobenzyl)-2-ethyl-7-methyl-5-(n-pentanesulfonylcarbamoyl)-3H-imidazo[4,5-b]pyridine] | 178 to 180 °C
CCCCCS(=O)(=O)NC(=O)c1cc(C)c2nc(CC)n(Cc3ccc(-c4ccccc4)cc3)c2n1 [Example 16, 2-ethyl-7-methyl-5-(n-pentanesulfonylcarbamoyl)-3-(4-phenylbenzyl)-3H-imidazo[4,5-b]pyridine] | 210 to 211 °C

Compound | melting point
CCCCCS(=O)(=O)NC(=O)c1cnc2nc(C)n(Cc3ccc(Cl)cc3Cl)c2c1 [Example 25, 1-(2,4-dichlorobenzyl)-2-methyl-6-(n-pentanesulfonylcarbamoyl)-1H-imidazo[4,5-b]pyridine] | 103 to 106 °C
CCCCCS(=O)(=O)NC(=O)c1ccc2[nH]c(C)c(Cc3ccc(Cl)cc3Cl)c2n1 [Example 26-1, 3-(2,4-dichlorobenzyl)-2-methyl-5-(n-pentanesulfonylcarbamoyl)pyrrolo[3,2-b]pyridine] | 147 to 148 °C
Cc1[nH]c2ccc(C(=O)NS(=O)(=O)c3ccccc3)nc2c1Cc1ccc(Cl)cc1Cl [Example 26-2, 3-(2,4-dichlorobenzyl)-2-methyl-5-(benzenesulfonylcarbamoyl)pyrrolo[3,2-b]pyridine] | > 250 °C
CCCCCS(=O)(=O)NC(=O)c1ccc2nc(C)n(Cc3ccc(Cl)cc3OC)c2n1 [Example 27, 3-(4-chloro-2-methoxybenzyl)-2-methyl-5-(n-pentanesulfonylcarbamoyl)-3H-imidazo[4,5-b]pyridine] | 168 to 170 °C
CCCCCS(=O)(=O)NC(=O)c1ccc2nc(C)n(Cc3ccc(Cl)cc3C)c2n1 [Example 28-1, 3-(4-chloro-2-methylbenzyl)-2-methyl-5-(n-pentanesulfonylcarbamoyl)-3H-imidazo[4,5-b]pyridine] | 155 to 157 °C
Cc1cc(Cl)ccc1Cn1c(C)nc2ccc(C(=O)NS(=O)(=O)c3ccccc3)nc21 [Example 28-2, 5-benzenesulfonylcarbamoyl-3-(4-chloro-2-methylbenzyl)-2-methyl-3H-imidazo[4,5-b]pyridine] | 235 to 237 °C
Cc1nc2ccc(C(=O)NS(=O)(=O)c3ccccc3)nc2n1Cc1ccc(-c2ccccc2)cc1Cl [Example 29-1, 5-benzenesulfonylcarbamoyl-3-(2-chloro-4-phenylbenzyl)-2-methyl-3H-imidazo[4,5-b]pyridine] | 204 to 214 °C
CCCCS(=O)(=O)NC(=O)c1ccc2nc(C)n(Cc3ccc(-c4ccccc4)cc3Cl)c2n1 [Example 29-2, 5-(n-butanesulfonylcarbamoyl)-3-(2-chloro-4-phenylbenzyl)-2-methyl-3H-imidazo[4,5-b]pyridine] | 199 to 200 °C
Cc1oc2ccc(C(=O)NS(=O)(=O)c3ccccc3)cc2c1Cc1ccc(Cl)cc1Cl [Example 30-2, 5-(benzenesulfonylcarbamoyl)-3-(2,4-dichlorobenzyl)-2-methylbenzo[b]furan] | 208.5 to 209.5 °C
CCCCCS(=O)(=O)NC(=O)c1cc(C)cc2c(C)c(Cc3ccc(Cl)cc3Cl)oc12 [Example 31-1, 2-(2,4-dichlorobenzyl)-3,5-dimethyl-7-(1-n-pentanesulfonylcarbamoyl)benzo[b]furan] | 164 to 165.5 °C
Cc1cc(C(=O)NS(=O)(=O)c2ccccc2)c2oc(Cc3ccc(Cl)cc3Cl)c(C)c2c1 [Example 31-2, 7-(benzenesulfonylcarbamoyl)-2-(2,4-dichlorobenzyl)-3,5-dimethylbenzo[b]furan] | 214 to 215 °C
CCCCCS(=O)(=O)NC(=O)c1ccc2sc(C)c(Cc3ccc(Cl)cc3Cl)c2c1 [Example 37, 3-(2,4-dichlorobenzyl)-2-methyl-5-(1-n-pentanesulfonylcarbamoyl)benzo[b]thiophene] | 158.5 to 159.3 °C
CCCCCS(=O)(=O)NC(=O)c1cccc2c(CC)c(Cc3ccc(Cl)cc3Cl)sc12 [Example 38-1, 2-(2,4-dichlorobenzyl)-3-ethyl-7-(1-n-pentanesulfonylcarbamoyl)benzo[b]thiophene] | 176 to 178 °C
CCc1c(Cc2ccc(Cl)cc2Cl)sc2c(C(=O)NS(=O)(=O)c3ccccc3)cccc12 [Example 38-2, 7-(benzenesulfonylcarbamoyl)-2-(2,4-dichlorobenzyl)-3-ethylbenzo[b]thiophene] | 181 to 183 °C
CCCCS(=O)(=O)NC(=O)c1ccc2c(c1)n(Cc1ccc(Cl)cc1Cl)c(=O)n2C [Example 39, 6-(1-n-butanesulfonylcarbamoyl)-1-(2,4-dichlorobenzyl)-3-methyl-2-benzimidazolone] | 358 to 360 °C
CCCCS(=O)(=O)NC(=O)c1ccc2nnn(Cc3ccc(Cl)cc3Cl)c2c1 [Example 40, 6-(1-n-butanesulfonyl-carbamoyl)-1-(2,4-dichlorobenzyl)benzotriazole] | 158 to 160 °C
CCCCS(=O)(=O)NC(=O)c1ccc2c(=O)n(CC)c(=O)n(Cc3ccc(Cl)cc3Cl)c2c1 [Example 42, 7-(1-n-butanesulfonyl-carbamoyl)-1-(2,4-dichlorobenzyl)-3-ethyl-2,4(1H,3H)-quinazolinedione] | 212 to 214 °C
CCCCS(=O)(=O)NC(=O)c1ccc2c(=O)n(Cc3ccc(Cl)cc3Cl)c(=O)n(C)c2c1 [Example 43, 7-(1-n-butanesulfonyl-carbamoyl)-3-(2,4-dichlorobenzyl)-1-methyl-2,4(1H,3H)-quinazolinedione] | 212 to 214 °C
CCCCS(=O)(=O)NC(=O)c1ccc2c(=O)n(Cc3ccc(Cl)cc3Cl)cnc2c1 [Example 44, 7-(1-n-butanesulfonyl-carbamoyl)-3-(2,4-dichlorobenzyl)-4(3H)-quinazolinone] | 245 to 247 °C
